Numbering of substitutions follows the chain as printed.
Experiments:
Assay in all cases: SIRT1 activation dose-response, OAcADPr assay with Ac-p53(W5) substrate
Format in all cases: biochemical
[1] = target: T1, full-length hSIRT1 T219A (Homo sapiens, UniProt Q96EB6, T219A); conditions: for EC50: hSIRT1 T219A, activation dose-response, Ac-p53(W5) substrate
T1 construct: The following point mutants of full-length hSIRT1 were generated; His6 (C); made in house
T1 sequence (Q96EB6 1-747 T219A): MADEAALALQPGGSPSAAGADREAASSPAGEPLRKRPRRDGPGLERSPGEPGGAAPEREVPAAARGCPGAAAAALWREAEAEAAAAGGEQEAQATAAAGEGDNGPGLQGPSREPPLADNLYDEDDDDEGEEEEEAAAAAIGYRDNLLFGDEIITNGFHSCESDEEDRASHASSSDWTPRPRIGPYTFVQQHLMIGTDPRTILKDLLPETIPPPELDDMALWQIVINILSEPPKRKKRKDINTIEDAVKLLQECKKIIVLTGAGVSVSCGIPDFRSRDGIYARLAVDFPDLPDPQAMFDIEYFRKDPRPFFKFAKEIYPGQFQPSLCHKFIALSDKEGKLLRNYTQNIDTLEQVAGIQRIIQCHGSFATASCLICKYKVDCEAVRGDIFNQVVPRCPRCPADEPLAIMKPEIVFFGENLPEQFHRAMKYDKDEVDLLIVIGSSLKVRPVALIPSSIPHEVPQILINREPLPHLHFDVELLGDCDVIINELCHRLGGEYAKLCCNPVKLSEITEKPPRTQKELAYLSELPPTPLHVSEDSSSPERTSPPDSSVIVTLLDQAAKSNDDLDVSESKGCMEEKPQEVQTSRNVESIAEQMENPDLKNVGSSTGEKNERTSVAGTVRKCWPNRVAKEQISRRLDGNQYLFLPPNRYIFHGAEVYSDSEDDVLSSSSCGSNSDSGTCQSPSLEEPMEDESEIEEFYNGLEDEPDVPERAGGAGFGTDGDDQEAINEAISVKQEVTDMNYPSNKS

[2] = target: T2, full-length hSIRT1 I223A (Homo sapiens, UniProt Q96EB6, I223A); conditions: for EC50: hSIRT1 I223A, activation dose-response, Ac-p53(W5) substrate
T2 construct: The following point mutants of full-length hSIRT1 were generated; His6 (C); made in house
T2 sequence (Q96EB6 1-747 I223A): T1 sequence (Q96EB6 1-747 T219A) with A219T, I223A

[3] = target: T3, full-length hSIRT1 I227A (Homo sapiens, UniProt Q96EB6, I227A); conditions: for EC50: hSIRT1 I227A, activation dose-response, Ac-p53(W5) substrate
T3 construct: The following point mutants of full-length hSIRT1 were generated; His6 (C); made in house
T3 sequence (Q96EB6 1-747 I227A): T1 sequence (Q96EB6 1-747 T219A) with A219T, I227A

EC50 fold shift (mutant EC50/wild-type EC50) [1]	RVmax fold shift = (wild-type RVmax−1)/(mutant RVmax−1) [1]	EC50 [1] [µM]	EC50 fold shift (mutant EC50/wild-type EC50) [2]	RVmax fold shift = (wild-type RVmax−1)/(mutant RVmax−1) [2]	EC50 [2] [µM]	EC50 fold shift (mutant EC50/wild-type EC50) [3]	RVmax fold shift = (wild-type RVmax−1)/(mutant RVmax−1) [3]	EC50 [3] [µM]	Structure (SMILES)
4.01	2.73	8.83	2.51	6.90	5.51	3.07	0.85	6.76	O=C(Nc1ccccn1)N1c2nc(-c3cccc(C(F)(F)F)c3)ccc2N2CC[C@H]1C2 [Example 7]
8.26	1.64	3.96	4.91	0.97	2.36	6.21	1.06	2.98	Cc1cnc2c(NC(=O)N3c4nc(-c5cccc(C(F)(F)F)c5)ccc4N4CC[C@H]3C4)cccc2n1 [Example 8]

Source: US9765075B2, “Substituted bridged urea analogs as sirtuin modulators” (GLAXOSMITHKLINE LLC, priority 2013, dated 2017)
